Measurements: patent US20100240746A1, “STEREOISOMERS OF TRICYCLODECAN-9-YL-XANTHOGENATE” (LUMAVITA AG, priority 2007, published 2010)
≈ marks a conversion by molar mass, not a printed value.

Assays:
[1] = tested on: phosphatidylcholine-specific phospholipase C (PC-PLC); conditions: Gonzalez-Roura et al.; comparison between diastereomers; cited from earlier work
[2] = biological target: T1, phosphatidylcholine-specific phospholipase C (PC-PLC) (Bacillus cereus, UniProt P09598); assay: Amplex Red phosphatidylcholine-specific phospholipase C (PC-PLC) inhibition assay; assay type: biochemical, B. cereus; conditions: 30 min at 37° C., triplicate
T1 construct: purchased Invitrogen
Description: (§1) The inhibitory activities of optically active potassium salts of (+)- and (−)-O-exo/C-exo-tricyclo [5.2.1.0^2,6]-dec-9-yl-xanthic acid 1A ((+)- and (−)-enantiomers 1A) against phosphatidylcholine-specific phospholipase C were evaluated, together with D609 and potassium salt of racemic O-exo/C-exo xanthic acid 1A (racemic 1A), using Amplex Red phosphatidylcholine-specific phospholipase C(PC-PLC) assay kit, which was obtained from Invitrogen (Calsbad, Calif.). D609 was obtained from Sigma Aldrich.
(§2) An Amplex Red stock solution (˜20 mM), a working reaction buffer, and a horseradish peroxidase stock solution (200 U/mL), a H2O2 working solution (20 mM), a choline oxidate stock solution (20 U/mL), an alkaline phosphatase stock solution (400 U/mL), and a B. cereus PC-PLC stock solution (10 U/mL) were prepared according to the instruction of the assay kit. The stock solution (100 mg/mL) for each test compound was also prepared by dissolving the compound in water 2 hr prior to the start of the experiment.
(§3) A working Amplex Red/HRP/lecithin solution was prepared by adding 200 μL of Amplex Red reagent stock solution, 100 μL of HRP stock solution, 200 μL of alkaline phosphatase stock solution, 100 μL of choline oxidase stock solution, and 78 μL of the lecithin solution to […] of the working reaction buffer. PC-PLC solution (0.2 U/mL) was prepared by diluting the PC-PLC stock solution with the working reaction buffer to the desired concentration.
(§4) The test compound (25 μL) at a serious of concentrations was pipetted into a 96 well plate. For uninhibited PC-PLC controls and non-PC-PLC controls, 25 μL of water was added. After the addition of 50 μL of the Amplex Red/HRP/lecithin working solution, the reaction was initiated by adding 25 μL of PC-PLC solution to each well. To the non-PC-PLC controls, 25 μL of water was added instead of PC-PLC solution. The experiment was performed in triplicate. The reactions were protected from light. After incubated for 30 min at 37° C., the reactions were measured with a fluorescence microplate reader using excitation at 550 nm and emission detection at 590 nm. The fluorescent data obtained were corrected for background fluorescence by subtracting the values obtained from the non-PC-PLC controls.

Calu-6 cells = assay: Cytotoxicity assay in Calu-6 cells (crystal violet); assay type: cell-based; conditions: 48 hr
Description: (§5) Calu-6 cells and RITA cells were grown in DMEM cell culture medium containing 10% fetal calf serum in CO2 incubator under 5% CO2 at 37° C. with 100% humidity.
For cytotoxicity assay, Calu-6 cells were seeded in 96 well plates at a density of 3×10^6 cells per plate in the DMEM cell culture medium. The plates were incubated at 37° C. in the presence of 5% CO2 for 24 hr. The DMEM cell culture medium in the plates was exchanged with fresh DMEM cell culture medium containing test compounds at a series of concentrations. The plates were incubated at 37° C. in the presence of 5% CO2 for 48 hr. The plates were then washed with PBS, fixed with 3% formaldehyde solution containing 0.9% NaCl for 1 min, washed by water for 10 sec, and dried overnight. For detection, the plates were stained with crystal violet solution for 5 min at room temperature, washed 5 times with water, and dried at room temperature overnight. After adding ethanol/acetic acid (99:1, v/v, […]) to each well, the plates were measured at 595 nm using an ELISA reader. A dose response curve was obtained for each compound tested by plotting the mean values of the optical densities against compound concentration.

[3] = tested on: herpes simplex virus type 2; assay: HSV-2 inhibition in Calu-6 cells, plaque titration on RITA cells; assay type: cell-based; conditions: Human alphaherpesvirus 2, Calu-6; 48 hr, 50 plaque forming units per well
Description: as §5
(§6) For HSV-2 inhibition, Calu-6 cells were seeded in 96 well plates at a density of 3×10^6 cells per plate in the DMEM cell culture medium. The plates were incubated at 37° C. in the presence of 5% CO2 for 24 hr. The DMEM cell culture medium in the plates was removed and the cells were infected with Herpes simplex virus type-2 at 50 plaque forming units per well. After incubation at 37° C. for 60 min, test compounds in DMEM cell culture medium at a series of concentrations were added. The plates were incubated at 37° C. in the presence of 5% CO2 for 48 hr. The plates were frozen at −20° C. prior to further analysis. After thawing at room temperature, supernatants containing infectious virus particles were prepared by centrifuging the supernatant from each well at 18,000 g at 4° C. for 5 min. The supernatant was further diluted before assay.
RITA cells were seeded in 24 well Linbra plates at a density of 4×10^6 cells per plate in 2 mL of DMEM cell culture medium. The plates were incubated at 37° C. in the presence of 5% CO2 for 24 hr. […] The number of plaques was determined macroscopically. […] The therapeutic index was also calculated for each compound by dividing LD50 with IC50.

[4] = biological target: T2, B. cereus PC-PLC (phosphatidylcholine-specific phospholipase C) (Bacillus cereus, UniProt P09598); assay: Inhibition of phosphatidylcholine-specific phospholipase C (Amplex Red PC-PLC assay kit); assay type: biochemical; conditions: 30 min at 37° C., 0.2 U/mL PC-PLC solution, triplicate
T2 construct: purchased Invitrogen
Description: as §1, §2, §3
as §4, with “To the non-PC-PLC controls, 25 μL of water was added instead of PC-PLC solution. The experiment was performed in triplicate. The reactions were protected from light.” left out

[5] = tested on: bovine papilloma virus type I (BPV-1)-transformed HEF (HEF-BPV); assay: Inhibition of bovine papilloma virus, BPV-infected hamster embryo fibroblasts (HEF) cell proliferation assay; assay type: cell-based; conditions: Bos taurus papillomavirus 1, HEF, 72 h, pH 6.8, HEF-BPV, 37° C., read-out: IC50
Description: Briefly, hamster embryo fibroblasts and bovine papilloma virus type I (BPV-1)-transformed HEF (HEF-BPV) were grown in Eagle's basal medium. […] and HEF cells were seeded in 96-well plates at a density of 0.5×10^6 cells per plate in DMEM cell culture medium containing 10% fetal calf serum at pH 6.8. The plates were then incubated in the presence of 5% CO2 in 100% humidity at 37° C. After 6 hr, the cell culture medium in the plates was exchanged with fresh DMEM cell culture medium containing test compounds at a series of concentrations. The plates were incubated at 37° C. for additional 72 hr. Cells in the plates were then washed with PBS, fixed with 3% formaldehyde solution containing 0.9% NaCl for 1 min, washed by water for 10 sec, and dried overnight. For detection, the plates were stained with crystal violet solution for 5 min at room temperature, washed 5 times with water, and dried at room temperature overnight. After adding ethanol/acetic acid (99:1, v/v, […]) to each well, the plates were measured at 595 nm using an ELISA reader.

[6] = tested on: Herpes simplex virus type-2 (HSV-2); assay: Inhibition of HSV-2 (plaque assay; Calu-6 infected, RITA cells for plaques); assay type: cell-based
Description: as §5, §6
RITA cells were seeded in 24 well Linbra plates at a density of 4×10^6 cells per plate in 2 mL of DMEM cell culture medium. The plates were incubated at 37° C. in the presence of 5% CO2 for 24 hr. After the removal of the cell culture medium, 0.1 mL of the diluted supernatants was added and the plates were incubated at 37 C for 1 hr. DMEM cell medium containing 10% fetal calf serum and 0.5% methyl cellulose was added and the plates were incubated at 37 for 48 hr. The plates were then washed with PBS, fixed with 3% formaldehyde solution containing 0.9% NaCl for 1 min, washed by water for 10 sec, and dried overnight. For detection, the plates were then stained with crystal violet solution for 5 min at room temperature, washed 5 times with water, and dried at room temperature overnight. The number of plaques was determined macroscopically. The number of plaques per well was then multiplied with the dilution factor. Dose response curves were obtained by plotting the number of plaques/0.1 mL against compound concentration. The therapeutic index was also calculated for each compound by dividing LD50 with IC50.

[7] = tested on: HPV-31-infected CIN612 9E keratinocytes; assay: Short-term study: growth of HPV-31-infected CIN612 9E keratinocytes (crystal violet); assay type: cell-based; conditions: at 200 UI/mL, 72 hrs
Description: The inhibitory activities of optically active (−)-enantiomer 1A against human papilloma virus were evaluated using HPV-31-infected CIN612 9E keratinocytes (Meyers et al., Science 1992, 257, 971-973).
Effect on cell proliferation. HPV-31 infected cells were seeded in 96-well plates containing 1×10^6 mitomycin C treated 3T3 cells (1×10^4 cells/well), at a density of 0.5×10^6 cells per plate (0.5×10^4 cells/well) in E medium. After the plates were incubated in a CO2 incubator under 5% CO2 at 37° C. in 100% humidity for six hrs, the cell culture medium was removed and fresh E medium containing 0.85 g/L NaHCO3 and a test compound at a series of concentrations (0, 0.5, 1, 2, 4, 8, 16, 32, 64, and 128 μg/mL), or positive control (interferon γ at 200 IU/mL) was added. […] After the plates were dried on blotting paper upside down overnight, 0.1 mL of ethanol/acetic acid (99:1) was added to each well and optical density at 595 nm was determined in an ELISA reader.
Dose response curves were established by plotting growth against concentrations of the test compound or control. ICso values were determined from the dose response curves from crossing points of the dose response curves with a line parallel to the x-axis corresponding to 50% of uninhibited growth.

[8] = tested on: HPV-31-infected CIN612 9E keratinocytes; assay: Long-term study: cell proliferation and morphology of CIN612 9E cells over 9 passages; assay type: cell-based; conditions: 200 IU/mL
Description: (§7) HPV-31 infected cells (3×10^6) were dispensed into 14.5 cm dishes containing fresh E medium and 1×10^6 cells of mitomycin C-treated 3T3 fibroblast feeders. The dishes were incubated in a CO2 incubator under 5% CO2 at 37° C. in 100% humidity. Human A431 epithelial cancer cells were used as HPV-uninfected negative controls. After 6 hr incubation, the cell culture medium was removed and fresh E medium containing 0.85 g/L NaHCO3 and a test compound at concentrations of 10 and 3.3 μg/mL, or control (interferon γ at 200 IU/mL) were added. For each concentration, 4 dishes were prepared. The dishes were incubated at 37° C. in a CO2 incubator. The culture medium was replaced to new E medium containing each concentration of the test compound or control in every 72 hrs. After seven days, or when untreated cells became confluent, one dish of each group was harvested for DNA/RNA extraction, followed by Southern/Northern Blot analysis; and one dish was trypsinized, cell number were determined and cells were seeded in three new dishes, treated and cultured as described above. This procedure was repeated for 9 passages. During these passages, morphology of cells and cell density were monitored.
Effect on cell proliferation. Cell numbers in the dishes harvested were determined in a Neubauer hematocytometer. The multiplication factor was determined at every step of passage. The cell number of each culture at the end of the passage was divided by the number of seeded cells at the start of each passage. The end point was reached when keratinocytes treated with a test compound stopped growing. Stop of cell growth was defined as a multiplication factor of no greater than 1.

HPV-31 specific DNA = assay: Long-term study: HPV-31 specific DNA level (Southern blot); assay type: cell-based, human papilloma virus; conditions: at 200 IU/mL
Description: as §7
(§8) Effect on HPV-31 specific DNA and RNA: DNA and RNA were analyzed in Southern and Northern Blot gels for HPV-31 specific sequences. X-ray films were scanned and optical densities of HPV-31 specific DNA and major mRNA species were integrated. Time curves were established by plotting integrated values against number of passages for each treatment dose. The T50 (time required to reduce the level to 50% of control) was determined from the time curves from crossing points of time curves with a line parallel to the x-axis corresponding to 50% of integrals of untreated control sample.

HPV-31 specific RNA = assay: Long-term study: HPV-31 specific RNA level (Northern blot); assay type: cell-based, human papilloma virus; conditions: at 200 IU/mL
Description: as §7, §8

T1 sequence (P09598 39-283 limits assumed): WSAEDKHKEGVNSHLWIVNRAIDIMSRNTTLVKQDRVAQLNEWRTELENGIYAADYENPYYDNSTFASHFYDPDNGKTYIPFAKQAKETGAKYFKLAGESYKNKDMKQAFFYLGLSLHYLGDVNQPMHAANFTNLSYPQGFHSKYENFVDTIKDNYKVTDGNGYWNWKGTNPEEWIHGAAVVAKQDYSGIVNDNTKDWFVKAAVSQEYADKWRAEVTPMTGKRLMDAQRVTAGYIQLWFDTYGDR
T2 sequence (P09598 39-283 limits assumed): as above

## S=C(S)OC1CC2CC1C1CCCC21 (racemic) [Racemic 1A, racemic O-exo/C-exo-tricyclo[5.2.1.0^2,6]-dec-9-yl-xanthic acid]
[1]
  inhibitory activities against PC-specific phospholipase C: no significant differences

## S=C(S)OC1CC2CC1C1CCCC21 (single isomer, unassigned; enantiomer 1a) [(+)-Enantiomer 1A, (+)-O-exo/C-exo-tricyclo[5.2.1.0^2,6]-dec-9-yl-xanthic acid 1A]
[2]
  IC50: 13.88 ± 0.85 mg/L (≈ 60.8 µM)
Calu-6 cells
  LD50: 81.29 ± 4.53 µg/mL

## Nc1nc2c(ncn2COCCO)c(=O)[nH]1 [Aciclovir, aciclovir]
[3]
  IC50: 1.21 ± 0.81 mg/L (≈ 5.37 µM)

## S=C(S)OC1CC2CC1C1CCCC21 (stereo not drawn) [O-exo/C-endo 1B]
[1]
  inhibitory activities against PC-specific phospholipase C: no significant differences

## S=C(S)OC1CC2CC1C1CCCC21 (single isomer, unassigned; (+)) [(+)-Enantiomer 1A, (+)-O-exo/C-exo-tricyclo[5.2.1.0^2,6]-dec-9-yl-xanthic acid]
[4]
  IC50: 60.8 µM
[5]
  IC50: 19.9 ± 2.52 mg/L (≈ 87.1 µM)
[6]; Calu-6 cells, 48 hr, 50 plaque forming units per well
  IC50: 20.97 ± 4.06 mg/L (≈ 91.8 µM)
[6]; LD50 (Calu-6) divided by IC50 (HSV-2), 2880 min
  Therapeutic Index: 3.9

B1: INF-γ: interferon γ, positive control at 200 IU/mL (protein, UniProt P01579 24-161, looked up)
Interferon gamma: QDPYVKEAENLKKYFNAGHSDVADNGTLFLGILKNWKEESDRKIMQSQIVSFYFKLFKNFKDDQSIQKSVETIKEDMNVKFFNSNKKKRDDFEKLTNYSVTDLNVQRKAIHELIQVMAELSPAAKTGKRKRSQMLFRG
[7]
  inhibition of the growth of HPV-31-infected CIN612 9E keratinocytes: about 50%
[8]; first cell passage
  multiplication factor: 0.8
[8]; second passage
  multiplication factor: 2.4
HPV-31 specific DNA
  T50 DNA: 2.7 passages
HPV-31 specific RNA
  T50 RNA: 3.36 passages
